In US20260274810A1, “NOVEL MITOFUSIN INHIBITORS” (ALBERT EINSTEIN COLLEGE OF MEDICINE, priority 2023, published 2026):

Columns and labels:
[1] = test system: U2OS cells; experiment: DNA damage, γH2AX immunofluorescence; assay type: cell-based
Protocol: Immunofluorescent analysis and microscopy. Cells were treated with MASM7, MFI8 and or Q-VD-OPh at ~70% confluence for 6 h. After treatments, cells were washed with PBS and fixed with 4% PFA for 15 min. Then cells were permeabilized with 0.1% Triton X-100 in PBS for 10 min. Cells were blocked with 5% BSA in PBS-T and incubated overnight with primary antibodies as indicated; γH2AX (Sigma; 05-636, 1:100 dilution). After incubation with primary antibodies, cells were washed with PBS and incubated with the appropriate mouse secondary antibody (ThermoFisher Scientific; A-11001) in the blocking solution. After PBS washes, coverslips were dipped in water and mounted on glass slides using Vectashield containing DAPI (Vector laboratories). Images were taken with Leica SP5 inverted confocal microscope. Data were analyzed with ImageJ.

[2] = test system: THP-1 cells; experiment: Cell death with BV6; assay type: cell-based
Protocol: (§1) Cell death assay. Cells (2×10^5 cells/well) were seeded in a 6-well plate and treated with the indicated drugs for 6 hours. Cells were dissociated using Accutase (Thermo Fisher; Cat. #00-4555-56) in order to avoid accidental exposure of phosphatidylserine on the outer plasma membrane. Cell death was evaluated with Dead Cell Apoptosis Kit with Annexin V Alexa Fluor™ 488 & Propidium Iodide (Thermo Fisher; Cat. #V13241) according to manufacturer's protocol. Data was acquired by BD LSRII flow cytometer system using BD FACSDiva software. Data was analyzed by FlowJo (BD).

[3] = test system: U2OS cells; experiment: Cell death with BV6; assay type: cell-based
Protocol: as §1

[4] = test system: MFN1 and MFN2; experiment: MFN1 and MFN2 gene expression and protein levels; assay type: cell-based
Protocol: Western blot. Western blots were performed from whole cell lysates (WCL) prepared in lysis buffer containing 50 mM Tris-HCl pH 7.5, 1% Triton X-100, 150 mM NaCl, 5 mM MgCl2, 1 mM EGTA and 10% glycerol in the presence of protease inhibitor cocktail (Roche).
Analysis of mitochondrial biogenesis-related genes by q-PCR. Total RNA was extracted by using RNeasy Mini Kit (Qiagen) followed by cDNA synthesis using the SuperScript IV VILO Master Mix (Thermo Scientific), both performed according to the manufacturer's protocol. q-PCR was performed using the following primers: […]
For the q-PCR reaction, Power SYBR Green master mix (Thermo Scientific) was used according to the manufacturer's instructions. Briefly, each reaction consisted of 10 ng cDNA, 5 μL Power SYBR Green master mix, 200 nM primers (forward and reverse), and RNase-free water up to 10 μL. q-PCR was performed on the ViiA 7 Real-Time PCR System (Thermo Scientific) with the following cycle parameter: 95° C. for 10 min, 40 cycles of 95° C. for 15 s, and 60° C. for 1 min. q-PCR products were analyzed by melting curves for unspecific products or primer dimer formation.

[5] = test system: MEFs; experiment: RNA-seq; assay type: cell-based, mouse
Excerpt: RNA-seq. Sequencing results were demultiplexed and converted to FASTQ format using Illumina bcl2fastq software. The sequencing reads were adapter and quality trimmed with Trimmomatic and then aligned to the mouse genome (build mm10/GRCm38) using the splice-aware STAR aligner. The featureCounts program was utilized to generate counts for each gene based on how many aligned reads overlap its exons. These counts were then normalized and used to test for differential expression using negative binomial generalized linear models implemented by the DESeq2 R package.

[6] = test system: MEFs; experiment: Cytochrome C release; assay type: cell-based, mouse; settings: 6 hrs; mitofusin dependent
Protocol: Cytochrome C release. MEFs were seeded in a […] and grown at ~70% confluence. Following 6 hrs treatment with MFI8, cells were harvested and lysed in digitonin buffer [20 mM Hepes, pH 7.2, 10 mM KCl, 5 mM MgCl2, 1 m MEDTA, 1 mM EGTA, 250 mM sucrose, 0.025% Digitonin (from 5% w/v stock) and complete protease inhibitors (Roche Applied Science)] on ice for 10 min. Then, supernatants were isolated by centrifugation at 15,000×g for 10 min. Mitochondrial pellets solubilized in 1% Triton X-100/PBS for 1 hr at 4° C. Solubilized Pellets were subjected to a 14,000×rpm spin for 10 min. Samples were prepared for western blot analysis and separated by 4-12% NuPage (Life Technologies).

[7] = test system: MEFs; experiment: Mitochondrial membrane potential (TMRE); assay type: cell-based, mouse
Protocol: Mitochondrial depolarization assay (mtΔΨ). MEFs (10^4 cells/well) were seeded in a 96-well black plate and treated with MASM7 or MFI8 for 6 hrs. Following treatments, cells were stained with 250 nM TMRE (Sigma; Cat. 87917) for 20 min at 37° C. Subsequently, cells were washed with thrice with PBS. Fluorescence intensity was detected by a M100 microplate reader (TECAN, Ex: 540 nm/Em: 579 nm).

[8] = test system: U2OS cells; experiment: Mitochondrial fusion in U2OS cells; assay type: cell-based
Protocol: Measurement of mitochondrial aspect ratio (Mito AR). Images that depict stained mitochondria with mitotracker green were analyzed using FIJI We measured for each mitochondrion its length and width. Then, we divided the length by the width for each mitochondrion to get its mitochondrial aspect ratio. >200 mitochondria were measured per treatment.

[9] = test system: U2OS cells; experiment: Minority MOMP imaging; assay type: cell-based; settings: U2OS cells expressing CytoGFP and MitoCherry, 3 h
Protocol: Minority MOMP. U2OS cells (100,000) were seeded onto glass coverslips and transfected with 250 ng each of CytoGFP and Mito-mCherry as previously described 39. 16 h after transfection, cells were treated with compounds for 3 h and then fixed in 4% paraformaldehyde. Cells were imaged on a Zeiss LSM880 with Airyscan using a 63×1.4 NA objective. Subsequent to acquisition, images were processed using the Airyscan processing function in ZEN software. Minority MOMP was quantified by manually scoring the co-localisation of CytoGFP and mito-mCherry.

[10] = test system: caspase-3/7 in MEFs; experiment: Caspase-3/7 activation assay; assay type: cell-based, mouse
Protocol: Caspase-3/7 activation assay. Cells (5×10^3 cells/well) were seeded in a 96-well white plate and treated with MASM7, MFI8. Caspase 3/7 activation was measured after 6 hr by addition of the Caspase-Glo 3/7 reagent according to the manufacturer's protocol (Promega). Luminescence was detected by a F200 PRO microplate reader (TECAN). Caspase assays were performed in at least triplicate and the data normalized to vehicle-treated control wells. Dilutions of MASM7 or MFI8 were performed using a TECAN D300e Digital Dispenser from 10 mM stocks.

For `Cc1cccc(NC(C)c2cc(Cl)ccc2O)c1C` (stereo not drawn) [MFI8], the DNA damage ([1]; U2OS cells) was “induced DNA damage in U2OS cells”, the DNA damage ([1]; U2OS, co-treatment with pan-caspase inhibitor Q-VD-OPh) was “abolished the capacity of the latter to induce DNA damage” and the “cell death in combination with BV6” value [2] was “synergistically induce cell death”. The “cell death in combination with BV6” value [3] was “synergistically induce cell death”, the “MFN1 and MFN2 gene expression and protein levels” value [4] was “neither MASM7 nor MFI8 altered” and the “genes involved in DNA damage response” value ([5]; MEFs) was “up-regulated several genes that are involved in DNA damage response”. The “gene expression of subunits of the respiratory complexes” value ([5]; RNA-seq) was “reduced the gene expression of several nuclear-encoded subunits of the respiratory complexes”, the “cytochrome c release to the cytosol” value [6] was “cytochrome c was released to the cytosol, albeit at modest levels” and the mitochondrial membrane potential ([7]; MFN1/MFN2 DKO MEFs reconstituted with WT MFN2) was “significantly decreased mitochondrial membrane potential”. For the same compound, the mitochondrial membrane potential ([7]; WT MEFs, 6 hrs) was “concentration responsively decreased mitochondrial membrane potential”, the mitochondrial fusion [8] was “inhibited mitochondrial fusion in U2OS cells” and the MOMP [9] was “induced MOMP, albeit at modest levels”. The caspase-3/7 activity ([10]; 6 hr) was “concentration-responsively increased caspase-3/7 activity”, the “caspase 3/7 activity” value ([10]; deletion of APAF-1) was “detrimental for the capacity of MFI8 to increase caspase 3/7 activity” and the caspase-3/7 activity ([10]; deletion of MFN1/MFN2) was “impaired the capacity of MFI8 to increase caspase-3/7 activity”.
